{"source": "patent US10722505B2", "about": "“Substituted 2,4 diamino-quinoline as new anticancer agents” (GENOSCIENCE PHARMA, priority 2014, dated 2020)", "key": {"[1]": {"test_system": "A375 cell line", "assay": "CellTiter-Glo growth inhibition assay, A375", "type": "cell-based", "settings": "Homo sapiens, A-375; A375, malignant melanoma, 72 h", "method": "(§1) All cell lines were maintained in medium containing 1% penicillin-streptomycin (Dutscher, P06-07100) and 10% Fetal Bovine Serum (Gibco, W3387L) except 20% for KG-1 cell line and PBMC, and cultured at 37° C. with 5% CO2.\nHepG2, Huh7, HCT-116, MDA-MB-231 and A375 cell lines were cultured in Dulbecco's modified Eagle's medium (Dutscher, L0103).\n(§2) Cell viability was measured using the CellTiter-Glo® luminescent cell viability assay as described by the manufacturer (Promega, Ref G7571) using an Infinite F200Pro luminometer (Tecan). Briefly, for adherent cells, cells were plated onto 96-well plates (white with clear bottom) in 90 μL of media per well and were allowed to grow overnight before the assay. For cells growing in suspension, cells were plated onto 96-well plates immediately before the assay.\nCompounds were added at different concentrations to each well, and cell cultures were incubated for 72 h. Vehicle (H2O) was used as a control, and all compounds were tested in a constant percentage of H2O. After addition of 100 μL of CellTiter-Glo®, luminescence was measured using an Infinite F200Pro (Tecan). EC50 values were determined as the dose of compound required to reduce luminescent values to 50% of the signal obtained for untreated cell cultures. The experimental data were analyzed using a computer program, Graphpad Prism v5 (GraphPad Software, Inc. La Jolla, Calif.). […]"}, "[2]": {"test_system": "MRC-5 cell line", "assay": "CellTiter-Glo growth inhibition assay, MRC-5", "type": "cell-based", "settings": "MRC5; MRC-5, human fetal lung fibroblast, 72 h", "method": "as §1\nMRC-5 cell line was maintained in MEM (Dutscher, L0416).\nas §2\nCompounds were added at different concentrations to each well, and cell cultures were incubated for 72 h. Vehicle (H2O) was used as a control, and all compounds were tested in a constant percentage of H2O. After addition of 100 μL of CellTiter-Glo®, luminescence was measured using an Infinite F200Pro (Tecan). EC50 values were determined as the dose of compound required to reduce luminescent values to 50% of the signal obtained for untreated cell cultures. The experimental data were analyzed using a computer program, Graphpad Prism v5 (GraphPad Software, Inc. La Jolla, Calif.).\nAll experiments were at least done in duplicate and repeated two independent times."}, "[3]": {"test_system": "CAKI-1 cell line", "assay": "CellTiter-Glo growth inhibition assay, CAKI-1", "type": "cell-based", "settings": "Homo sapiens, CAKI-1, 72 h", "method": "CAKI-1 and 786-0 cell lines were maintained in RPMI 1640 medium (Dutscher, L0498) containing 1% penicillin-streptomycin (Dutscher, P06-07100) and 10% Fetal Bovine Serum (Gibco, W3387L) and cultured at 37° C. with 5% CO2.\nas §2, with “Briefly,” for “Briefly, for adherent cells,”, “assay.” for “assay. For cells growing in suspension, cells were plated onto 96-well plates immediately before the assay.”\nCompounds 2-3 and two reference compounds (Sorafenib and Sunitinib) were added at different concentrations to each well, and cell cultures were incubated for 72 h. For compound 2-3 analysis, H2O was used as a negative control (=untreated) and all concentrations were tested in a constant percentage of H2O. For Sorafenib and Sunitinib analysis, DMSO was used as a negative control (=untreated) and all concentrations were tested in a constant percentage of DMSO. 72 h after incubation of compounds, 100 μL of CellTiter-Glo® were added to each well and luminescence was measured using an Infinite F200Pro (Tecan). EC50 values were determined as the dose of compound required to reduce luminescent values to 50% of the signal obtained for untreated cell cultures. The experimental data were analyzed using a computer program, Graphpad Prism v5 (GraphPad Software, Inc. La Jolla, Calif.). All experiments were at least done in triplicate and repeated at least three independent times."}, "[4]": {"test_system": "CPP36 liver metastatic CRC patient-derived cells", "assay": "CellTiter-Glo growth inhibition, liver metastatic CRC patient-derived cells CPP36", "type": "cell-based", "settings": "Homo sapiens; CPP36, 72 h", "excerpt": "Patient derived liver metastasis cells (CPP19, 30, 36 and CPP45—see table 1 for clinical descriptions) were maintained in complete DMEM (Gibco) with 10% FBS. Cells were obtained from biopsies provided by CHU-Caremeau (Nimes, France) within an approved protocol. Signed informed consents were obtained from patients prior to samples acquisition in accordance with all ethical and legal aspects. Tumors were washed, minced into fragments (<2 mm^3) and digested with liberase H (0.26 U/mL, Roche) resuspended in Accumax (Sigma-Aldrich). After 2 hours at 37° C., cell suspension was filtered through a […] to obtain a single cell suspension and plated in DMEM medium, supplemented with FBS, glutamine, antibiotics and non-essential aminoacids. When a monolayer of patient-derived tumor cells was formed, cells were detached using trypsin/EDTA and resuspended in DMEM with 10% FBS (for adherent cells) or defined M11 media (for sphere formation). Cells were cultured in a humidified atmosphere at 37° C. and 5% CO2.\nCells were plated at 10^4 cells per well in P96 well plates in DMEM with 10% FBS. After 24 hours, cells were treated with compound 2-3 and cell viability was assessed 72 h post-treatment by CellTiter-Glo® Luminescent Cell Viability Assay (Promega). EC50 were calculated using GraphPad Prism Software v6 (Graphpad Software, Inc La Jolla, Calif.). […]"}, "[5]": {"test_system": "LI0050 HCC patient derived cells", "assay": "CellTiter-Glo growth inhibition, HCC patient-derived cells LI0050", "type": "cell-based, human", "settings": "Homo sapiens; LI0050, 72 hours", "method": "The patient derived Hepatocellular Carcinoma (HCC) cells were maintained in medium respectively described in table 15 containing 1% penicillin-streptomycin (Life Technologies, 15070-063), with a supplements for primary cell culture (PCS) containing hydrocortisone (50 nM), Epidermal Growth Factor (20 ng/ml), β-fibroblast Growth Factor (10 ng/ml), Heparin (2 μg/ml) ITS liquid media supplement (1×) and non-essential amino acid (NEAA, 0.01 mM, 1×). The primary cell were cultured in a humidified atmosphere (95% relative humidity) with 5% CO2 at 37° C.\nThe cell growth inhibition assay was performed as described previously in example 5 using the CellTiter-Glo® luminescent cell viability assay as described by the manufacturer (Promega, Ref G7571). The number of cells seeded per well (in 96-Well Flat Clear Bottom Black Polystyrene TC-Treated Microplates, Cat #3340, Corning®) is described in the table 16. A backseal black sticker (Cat #6005189, Perkin Elmer) was placed to the bottom of each plate before recording CellTiter-Glo® luminescence.\nThe experimental data are analyzed using a computer program, Graphpad Prism V 5.0 (GraphPad Software, Inc. La Jolla, Calif.) and EC50 values were determined as the dose of compound required to reduce absorbance values to 50% of the signal obtained for vehicle treated cell cultures and were a mean of at least three independent experiments."}}, "note": "Counter-ions that a name gives are not always drawn.", "data": [{"smiles": "CC(C)(C)NC1CCN(c2cc(NCc3ccc(Cl)cc3)nc3ccccc23)CC1", "note": "[Compound 2-3, 2-(4-chlorobenzylamino)-4-(4-tert-butylaminopiperidin-1-yl)-quinoline hydrochloride salt]", "values": [{"measurement": "EC50", "setting": "[1]", "result": 1000, "unit": "nM"}, {"measurement": "EC50", "setting": "[2]", "result": "~3400", "unit": "nM"}, {"measurement": "EC50", "setting": "[3]", "result": 1400, "unit": "nM"}, {"measurement": "EC50", "setting": "[4]", "result": 1450, "unit": "nM"}, {"measurement": "EC50", "setting": "[5]", "result": 3500, "unit": "nM"}]}]}
